Among the data in ChEMBL document CHEMBL1157700, “Synthesis of 3-[(N-carboalkoxy)ethylamino]-indazole-dione derivatives and their biological activities on human liver carbonyl reductase” (Bioorg Med Chem, 2010) are Activity values, retold here.

Each structure is given as a SMILES string.

This test has as its system A549. Nature of the test: Potentiation of daunorubicin-induced cytotoxicity against human A549 cells. Format: functional.

Take `CNc1ncnc2c1c(-c1cccc(O)c1)cn2C(C)C`: the Activity is reported as 25%.
